As usually defined, the melting point is the temperature of the solid-liquid transition. The compound `O=C(O)C(F)(F)C(F)(F)C(F)(F)C(F)(F)C(F)(F)C(F)(F)C(F)(F)C(F)(F)C(F)(F)C(F)(F)F` registered a melting point of 97.9 to 100 °C. Turning to `CC(=O)OC1CCCCC1C(C)(C)C` (centres undefined), the melting point stood at 35 °C. `O=C(O)Cn1c(CN2CCOCC2)nc2ccccc21` showed a melting point of 214 to 218 °C. In turn, `CCCc1ccc(NC(C)=O)cc1O` registered a melting point of 178 to 179 °C. Turning to `ClCc1nc2ccccc2[nH]1`, the melting point is 146 to 150 °C. Consider `OCC1CCC(n2cnc3c(O)ncnc32)O1` (centres undefined), for which the melting point worked out at 175 °C.

`Cc1cc(C(C)(C)C)cc(C)c1I`: the melting point was determined as 56 °C. Turning to `OCc1ccccc1N1CCOCC1`, the melting point lay within 54 to 57 °C. For `CC12CCC(C(=CC=C3C(=O)C4(C)CCC3C4(C)C)C1=O)C2(C)C` the value was 283 to 285 °C; for `CCc1ccccc1-c1ccccc1`, -6 °C; for `CCCCCCCCCCCCCCCCCCC1CCCCC1`, 41.6 °C. The compound `CC1CCC2(OC1)OC1CC3C4CCC5CC(O)CCC5(C)C4CCC3(C)C1C2C` (centres undefined) had a melting point of 206 °C. As for `CN(C)C(=O)Nc1ccc(Oc2ccc(Cl)cc2)cc1`, the melting point stood at 151 °C. Compound `CC[C@H]1CC[C@H](C(=O)O)CC1` showed a melting point of 50 °C. The compound `COC(=O)c1c(C=O)ccc(OC)c1OC` had a melting point of 83 °C. Take `O=C1NC(=O)C(=Cc2ccc(-c3ccc(Br)cc3)o2)C(=O)N1`: the melting point was found to be 255 °C.

Compound `CC(=O)c1cc(-c2c(Cl)cccc2Cl)no1` yielded a melting point of 117 to 119 °C. On to `NC(=O)c1sc2nnccc2c1N`, for which the melting point was in the range of 310 to 320 °C. `Cc1noc(-c2ccc(CO)cc2)n1`: the melting point lay in the range of 102 to 104 °C. The compound `O=C(Cl)Cc1ccc2ccccc2c1` came in with a melting point of 60 to 61 °C. Take `O=[N+]([O-])c1cc([N+](=O)[O-])c(C2CO2)cc1C1CO1` (centres undefined): the melting point was in the range of 153 to 154 °C. Regarding `O=C1C=CC(=O)c2cc3ccccc3cc21`, the melting point fell in the range of 223 to 226 °C.

In turn, `CC(C)C12CCC(C)(O1)C(=O)OC2=O` (centres undefined) came in with a melting point of 109 °C.

In the case of `Cc1cc([N+](=O)[O-])c(Cl)c([N+](=O)[O-])c1`, the melting point lay in the range of 114 to 116 °C.

Compound `Cc1ccccc1NC=C1C(=O)NN=C1c1c(O)c2ccccc2n(C)c1=O` gave a melting point of 288 °C. Then `Cc1cc(O)c(Cl)cc1Cl`, with 73 °C; and `O=[N+]([O-])c1ccc(/C=C/c2ccccc2O)c([N+](=O)[O-])c1`, with 186 °C. `CCOC(N)=S`: the melting point came to 41 °C. Then `CCOC(=O)c1c[nH]c2c(F)cccc2c1=O`, with 205 to 210 °C; and `N#CCc1ccc(-c2ccccc2)cc1`, with 95 °C.

With `CC(C)c1cc(C(=O)O)c(O)c(C(C)C)c1`, the melting point amounted to 117 °C.

With `OCCSCCCCCCCCCCSCCO`, the melting point was 69.5 °C. `Fc1ccc(-c2ccc(Br)cc2)cc1`: the melting point was 95 to 96 °C. Take `O=C(C1=NN(c2ccccc2)C2C(=O)N(c3ccc(Br)cc3)C(=O)C12)c1ccc(Cl)cc1` (centres undefined): the melting point worked out at 255 °C. For `Nc1ccc(C(=O)O)cc1OC(F)(F)F`, the melting point fell in the range of 168 to 169 °C. `COC(=O)[C@H](CC(=O)O)Cc1cccc2ccccc12` returned a melting point of 113 °C. `COC(=O)c1cccc2[nH]ccc12` registered a melting point of 70 °C.

`CC#CC1(O)CCC2C3CC(C)C4=CC(=O)CCC4(C)C3CCC21C` (centres undefined) gave a melting point of 102 °C. Consider `CC12CCC(CC1=NO)C2(C)C` (centres undefined), for which the melting point came to 118 °C. Turning to `c1cnc(N2CCN(Cc3ccc4c(c3)OCO4)CC2)nc1`, the melting point was 98 °C. As to `N#Cc1cccc(F)c1`, the melting point is -16 °C. Compound `O=C(O)[C@H](O)c1ccccc1Cl` registered a melting point of 118 to 121 °C. The compound `CCC1(CC)COC(=O)NC1=O` displayed a melting point of 97.5 °C. The compound `COc1ccc(F)c(CBr)c1F` came in with a melting point of 55 °C. The compound `Cn1cc(C=O)c2ccccc21` had a melting point of 69 °C. In the case of `COc1cc(N=C=S)cc(OC)c1OC`, the melting point was found to be 65 °C. For `CC(=O)OCC(=O)C12OC(C)(C)OC1CC1C3CC(C=O)=C4C=C(OCCCl)CCC4(C)C3(F)C(O)CC12C` (centres undefined), the melting point was 181 °C.

For `CC12CCC(C(C(=O)c3ccccc3)C1=O)C2(C)C` (centres undefined), the melting point is 98 °C.

Turning to `N#CCS(=O)(=O)c1ccccc1`, the melting point worked out at 112 °C. In the case of `COC1CCC(C2C(=O)NC(=O)NC2=O)CC1` (centres undefined), the melting point was 215 °C. As to `O=C(CCCc1ccccc1)c1ccccc1`, the melting point fell in the range of 55 to 59 °C.

In turn, `O=[N+]([O-])c1cc(Cl)cc(Cl)c1O` gave a melting point of 122 °C. Take `Cc1cccc(C)c1NC(=O)c1cncc(Cl)n1`: the melting point was 122 °C. Consider `C#CC(C)(O)CC` (centres undefined), for which the melting point turned out to be 30.5 °C. Take `CC(C)(C)c1cc(C(=S)NC2CCCCC2)cc(C(C)(C)C)c1O`: the melting point was 217 to 218 °C. Compound `Cc1ccc2c(c1C)CCC1C2CCC2CCCCC21C` (centres undefined) yielded a melting point of 156 °C. For `O=C(OC1OC(=O)c2ccccc21)c1ccccc1` (centres undefined) the value was 133 to 135 °C; for `C=C[Si](OC(C)=O)(OC(C)=O)OC(C)=O`, 7 °C; for `CC(C)(C)[C@H]1CC[C@H](C(=O)O)CC1`, 170 to 175 °C.

`O=C1Cc2cccc(F)c21` displayed a melting point of 41 °C.

On to `N#Cc1c(OCC(F)(F)F)cccc1OCC(F)(F)F`, for which the melting point turned out to be 116 °C. For `COC(=O)c1cc2cc3c(cc2cc1C(=O)OC)CC3` the value was 124 °C. For `FC(F)(F)CCCl`, the melting point is -106 °C. Consider `Fc1ccc(-c2ccc(F)cc2)cc1`, for which the melting point turned out to be 94.5 °C. Consider `Nc1ccccc1CCCCc1ccccc1N`, for which the melting point is 74 °C. Then `CCc1cc(C#N)ccc1N`, with 63 °C; and `CC(C)C1=CC2=C(CC1)C1(C)CCCC(C)(C(=O)O)C1CC2` (centres undefined), with 164 °C. `ON=C(c1cccs1)c1cccs1` showed a melting point of 134 to 136 °C.

With `O=Cc1cc(Br)ccc1Br`, the melting point amounted to 95 °C.

With `CC/C(CCCc1ccccc1)=N\NC(N)=O`, the melting point worked out at 149 °C. `Cc1nc(-c2ccc(CO)cc2)cs1` yielded a melting point of 71 to 74 °C. For `Cc1ccc(N)c(Br)c1` the value was 26 °C; for `CC(=O)N(C)c1cccc(-c2ccc3nnc(C)n3n2)c1`, 200 to 201 °C. Take `CCCCCCCOC(=O)CCCC`: the melting point was -46.4 °C. For the compound `COC(=O)[C@H](C)On1c(C)csc1=S`, the melting point was found to be 69.8 °C.

Consider `CCCCCCCCCCCCCCCCCCCCCCC(=O)O`, for which the melting point was in the range of 79 to 80 °C. For `FC(F)(Br)C(F)(F)C(F)(F)C(F)(F)C(F)(F)C(F)(F)C(F)(F)C(F)(F)Br`, the melting point was 40 °C. `O=C(O)c1cc(F)ccc1[N+](=O)[O-]` returned a melting point of 135 °C. For `COc1cc(OC)nc(NC(=O)NS(=O)(=O)Nc2ccccc2C(=O)C2CC2)n1` the value was 162 °C.

The values above are taken from a melting point compilation (Tetko et al.).
